How the values were obtained:
[1] = molecular target: T1, DNA/topo I cleavage complexes (Homo sapiens, UniProt P11387); test: Formation of DNA/topo I cleavage complexes in HeLa nuclei followed by immunoblot (CsCl gradient, Western slot blot); type: cell-based; details: 3 h at 37° C., 5 μM (FIG. 8)
T1 construct: HeLa nucleus cells (5000000) were prepared and incubated 3 h at 37° C. with the topoisomerase I poison; endogenous in cells; host or cells: HeLa nuclei
T1 sequence (P11387 1-765): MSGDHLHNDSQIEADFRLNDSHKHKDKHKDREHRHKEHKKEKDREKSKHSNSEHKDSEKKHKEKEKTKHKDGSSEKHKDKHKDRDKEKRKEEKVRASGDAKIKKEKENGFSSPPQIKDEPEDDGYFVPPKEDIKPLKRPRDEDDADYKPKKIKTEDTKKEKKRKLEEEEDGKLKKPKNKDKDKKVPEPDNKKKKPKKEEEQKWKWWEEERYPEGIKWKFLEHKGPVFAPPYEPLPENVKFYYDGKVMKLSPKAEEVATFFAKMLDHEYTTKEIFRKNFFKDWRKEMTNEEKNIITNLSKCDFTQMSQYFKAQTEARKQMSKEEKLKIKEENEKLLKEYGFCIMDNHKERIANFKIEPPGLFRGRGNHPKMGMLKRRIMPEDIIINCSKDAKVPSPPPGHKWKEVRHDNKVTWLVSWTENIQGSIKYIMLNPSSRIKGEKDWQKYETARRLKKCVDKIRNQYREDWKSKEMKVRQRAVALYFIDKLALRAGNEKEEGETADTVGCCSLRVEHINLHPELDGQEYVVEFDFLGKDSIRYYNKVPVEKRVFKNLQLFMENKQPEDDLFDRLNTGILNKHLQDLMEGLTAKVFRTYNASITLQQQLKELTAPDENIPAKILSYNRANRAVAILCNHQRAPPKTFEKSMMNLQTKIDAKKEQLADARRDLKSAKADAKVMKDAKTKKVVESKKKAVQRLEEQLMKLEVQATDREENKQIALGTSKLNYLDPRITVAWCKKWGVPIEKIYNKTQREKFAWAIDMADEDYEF
Method: FIG. 8 gives correlation results of the biological effects with the formation of DNA/topo I/CPT complexes: the formation of the complexes in the cells was followed by immunoblot.
In the experiments corresponding to FIG. 8, HeLa nucleus cells (5000000) were prepared and incubated 3 h at 37° C. with the topoisomerase I poison free (CPT or ST1578) or coupled to oligonucleotide (TFO-L4-10CPT or TFO-ST1578 or LNA-ST1578), or with a control oligonucleotide (TFO-NH2 or TFO-NPh2) at various concentration (in FIG. 8 at 5 μM). After adding of sarkosyl, the lysates were ultracentrifugated 16 h on a gradient of CsCl. 12 fractions were recovered and analysed by Western slot blot to show the fractions containing topoisomerase I (in 1-4 for the untreated control (mock)).
The fractions containing the DNA were identified by measuring absorbance at 260 nm (fractions 8-10).

human topoisomerase I = molecular target: T2, human topoisomerase I (Homo sapiens, UniProt P11387); test: Topoisomerase I DNA cleavage test on radiolabelled duplex; type: biochemical; details: in vitro, free inhibitors
T2 construct: purchased Invitrogen Inc
T2 sequence (P11387 1-765): T1 sequence (P11387 1-765)
Method: The radiolabelled 324-bp duplex in position 3′ on the oligopyrimidine strand (well 1) was incubated with topoisomerase I in the presence of three camptothecin derivatives (wells 2-4, 10CPT, 7CPT, SCPT), or of these three derivatives conjugated with TFO 16 (wells 5-7, TFO16-L4-10CPT, TFO16-L6-CPT, TFO16-L3-SCPT). The cleavage sites are indicated by letters and the binding site of the conjugate is shown diagrammatically. L3=diaminopropynyl; L4=diaminobutyl, L6=diaminohexyl; after incubation, the protein is digested by a treatment with SDS/proteinase K and the cleavage products are analysed on a denaturating gel;
The radiolabelled duplexes (50 nM) are incubated for 1 hour at 30° C., in 50 mM. […] After ethanol precipitation, all the samples are re-suspended in 6 μl of formamide, heated to 90° C. for 4 minutes and cooled again on ice for 4 mins, before being deposited on 8% and 10% denaturing polyacrylamide gel [19/1 acrylamide:bisacrylamide], for the long and short targets respectively, containing 7.5 M urea in 1× TBE buffer (50 mM Tris-HCl, 55 mM boric acid, 1 Mm EDTA), In order to quantify the cleavage intensity, the gels are scanned with a Dynamics 445SI Phosphorimager. […]
The cleavage specificity of the conjugates was measured in vitro by a standard topoisomerase I cleavage test. […]

Structure (SMILES)	fractions of the CsCl gradient containing topoisomerase I (stabilisation of DNA/topo I cleavage complexes) [1]	stimulation of DNA cleavage by topoisomerase 1 compared with 7-aminoethyl-camptothecin (human topoisomerase I)
CC[C@@]1(O)C(=O)OCc2c1cc1n(c2=O)Cc2cc3ccccc3nc2-1 [CPT, camptothecin]	observed only in fractions containing DNA	–
CC[C@@]1(O)C(=O)OCc2c1cc1n(c2=O)Cc2c-1nc1ccccc1c2C=NCCN [ST1578, 20S-7-aminoethyliminomethylcamptothecin]	observed only in fractions containing DNA	–
CC[C@@]1(O)C(=O)OCc2c1cc1n(c2=O)Cc2cc3cc(C(=O)O)ccc3nc2-1 [10-carboxycamptothecin, 20S-10-carboxycamptothecin]	–	more effectively
